In data set [1] the test system is Lung. Briefly: Biodistribution in lung of BALB/cAnNCrlCrlj mouse at 0.5 umol/kg administered as [14C]labeled compound intranasally as single dose measured 0.25 hrs post dose by liquid scintillation counting. In kind it is ADME, organism-based. Particulars: in vivo, inhaled_or_intranasal; call rule not given here.
A short description of data set [2]: Biodistribution in trachea of BALB/cAnNCrlCrlj mouse at 0.5 umol/kg administered as [14C]labeled compound intranasally as single dose measured 0.25 hrs post dose by liquid scintillation counting. In kind it is ADME, organism-based. As to conditions: in vivo, inhaled_or_intranasal.
Data set [3] can be described thus: Biodistribution in respiratory tract of BALB/cAnNCrlCrlj mouse at 0.5 umol/kg administered as [14C]labeled compound intranasally as single dose measured 6 hrs post dose by whole body autoradiography. In kind it is ADME, organism-based. As to conditions: in vivo, inhaled_or_intranasal.
Data set [4] concerns Lung. Description: Biodistribution in lung of BALB/cAnNCrlCrlj mouse at 0.5 umol/kg administered as [14C]labeled compound intranasally as single dose measured 24 hrs post dose by liquid scintillation counting. As to conditions: in vivo, inhaled_or_intranasal. In kind it is ADME, organism-based.
Data set [5] is described as follows: Biodistribution in trachea of BALB/cAnNCrlCrlj mouse at 0.5 umol/kg administered as [14C]labeled compound intranasally as single dose measured 24 hrs post dose by liquid scintillation counting. Particulars: in vivo, inhaled_or_intranasal. The data set is classed as ADME, organism-based.
Data set [6] can be described thus: Biodistribution in respiratory tract of BALB/cAnNCrlCrlj mouse at 0.5 umol/kg administered as [14C]labeled compound intranasally as single dose measured 72 hrs post dose by whole body autoradiography. Particulars: in vivo, inhaled_or_intranasal. The data set is classed as ADME, organism-based.
A short description of data set [7]: Prodrug conversion in BALB/cAnNCrlCrlj mouse lung S9 fraction assessed as compound conversion to R-125489 at 10 uM in presence of esterase inhibitor BNPP administered 10 mins before compound addition relative to untreated control. The data set is classed as ADME. Particulars: s9, 10 min.
A short description of data set [8]: Prodrug conversion in BALB/cAnNCrlCrlj mouse trachea assessed as compound conversion to R-125489 at 10 uM in presence of esterase inhibitor DFP administered 10 mins before compound addition relative to untreated control. The data set is classed as ADME, tissue-based.
Data set [9] can be described thus: Prodrug conversion in BALB/cAnNCrlCrlj mouse lung S9 fraction assessed as compound conversion to R-125489 at 10 uM relative to untreated control. As to conditions: s9, 10 µM. In kind it is ADME.
A short description of data set [10]: Prodrug conversion in BALB/cAnNCrlCrlj mouse lung S9 fraction assessed as compound conversion to R-125489 at 10 uM in presence of esterase inhibitor EDTA administered 10 mins before compound addition relative to untreated control. The data set is classed as ADME. As to conditions: s9, 10 min.
A short description of data set [11]: Prodrug conversion in BALB/cAnNCrlCrlj mouse trachea assessed as compound conversion to R-125489 at 10 uM relative to untreated control. The data set is classed as ADME, tissue-based.
Data set [12] has as its system Lung. Briefly: Half life in BALB/cAnNCrlCrlj mouse lung at 0.5 umol/kg administered as [14C]labeled compound intranasally as single dose. As to conditions: in vivo, inhaled_or_intranasal. The data set is classed as ADME, organism-based.
Data set [13] is described as follows: Prodrug conversion in BALB/cAnNCrlCrlj mouse lung S9 fraction assessed as compound conversion to R-125489 at 10 uM in presence of esterase inhibitor PCMB administered 10 mins before compound addition relative to untreated control. As to conditions: s9, 10 min. The data set is classed as ADME.
The nature of data set [14]: Prodrug conversion in BALB/cAnNCrlCrlj mouse lung S9 fraction assessed as compound conversion to R-125489 at 10 uM in presence of esterase inhibitor DFP administered 10 mins before compound addition relative to untreated control. In kind it is ADME. Particulars: s9, 10 min.
Data set [15] is described as follows: Prodrug conversion in BALB/cAnNCrlCrlj mouse lung S9 fraction assessed as compound conversion to R-125489 at 10 uM in presence of esterase inhibitor DTNB administered 10 mins before compound addition relative to untreated control. In kind it is ADME. Particulars: s9, 10 min.
Data set [16] in a line: Prodrug conversion in BALB/cAnNCrlCrlj mouse lung S9 fraction assessed as compound conversion to R-125489 at 10 uM in presence of esterase inhibitor eserine administered 10 mins before compound addition relative to untreated control. Particulars: s9, 10 min. In kind it is ADME.
The test system of data set [17] is Lung. Description: Tmax in BALB/cAnNCrlCrlj mouse lung at 0.5 umol/kg administered as [14C]labeled compound intranasally as single dose. The data set is classed as ADME, organism-based. As to conditions: in vivo, inhaled_or_intranasal.
The test system of data set [18] is Lung. Briefly: Cmax in BALB/cAnNCrlCrlj mouse lung assessed as compound concentration per gram of tissue at 0.5 umol/kg administered as [14C]labeled compound intranasally as single dose. The data set is classed as ADME, organism-based. The arrangement: dose 0.5 umol/kg, route nasal. Particulars: in vivo, inhaled_or_intranasal.
The next data set relates to Influenza A virus. Description: Antiviral activity against Influenza A virus (A/Puerto Rico/8/1934(H1N1)). The data set is classed as functional, organism-based.
In data set [19] the test system is Lung. Briefly: Drug level in BALB/cAnNCrlCrlj mouse lung at 0.5 umol/kg administered as [14C]labeled compound intranasally as single dose measured 120 hrs post dose. The data set is classed as ADME, tissue-based. As to conditions: in vivo, inhaled_or_intranasal.

What is called Tmax is the time from dosing to the highest level. By IC50 is commonly meant the midpoint of a concentration-inhibition curve. A low value points to higher potency.

As to `CO[C@@H]([C@@H]1OC(C(=O)O)=C[C@H](N[14C](=N)N)[C@H]1NC(C)=O)[C@H](O)CO`, the Drug uptake in the data set on Lung [1] came out at 30 nmolequiv/g; in [2], 4 nmolequiv/g.
As to `CCCCCCCC(=O)OC[C@@H](O)[C@@H](OC)[C@@H]1OC(C(=O)O)=C[C@H](N[14C](=N)N)[C@H]1NC(C)=O`, the Drug uptake result in data set [3] is “Active”; in the data set with Lung [4], 5.57 nmolequiv/g; with Lung [1], 30 nmolequiv/g; in [5], 0.99 nmolequiv/g; in [2], 4 nmolequiv/g; in data set [6], “Active”.
For the compound `CCCCCCCC(=O)OC[C@@H](O)[C@@H](OC)[C@@H]1OC(C(=O)O)=C[C@H](NC(=N)N)[C@H]1NC(C)=O` [LANINAMIVIR OCTANOATE], the Activity in data set [7] is recorded as 21%; in data set [8], 44.1%; in [9], 100%; in [10], 130.7%; in data set [11], 100%; in data set [13] it was 106.5%. In addition, the Activity in [14] amounted to 13.6%; in [15] it was 42%; in data set [16], 31.9%. For the same compound, the t1/2 in the data set with Lung [12] amounted to 0.833 h.
As for `CO[C@@H]([C@@H]1OC(C(=O)O)=C[C@H](NC(=N)N)[C@H]1NC(C)=O)[C@H](O)CO` [LANINAMIVIR], the Tmax with Lung [17] was determined as 3 h. The Cmax in the data set with Lung [18] is 6.41 nmol/g. The compound also yielded an IC50 with Influenza A virus of 5.97 nM. In addition, the t1/2 in the data set with Lung [12] is 41.4 h. This compound also registered a Drug uptake in the data set with Lung [19] of 0.915 nmol/g.
For `CC(=O)N[C@H]1[C@H]([C@H](O)[C@H](O)CO)OC(C(=O)O)=C[C@@H]1N[14C](=N)N` [[14C]-ZANAMIVIR], the results for the Drug uptake (with Lung [1]; in [2]) were 30 nmolequiv/g and 4 nmolequiv/g, respectively.
